The source of these data is patent US20160137630A1, “INDUCTION OF GATA2 BY HDAC1 AND HDAC2 INHIBITORS” (ACETYLON PHARMACEUTICALS, INC., priority 2014, published 2016).

pIC50: −log10 of the molar value. “Also recorded” adds a separate entry of the source. Where two headings read alike, the source gives them in different places.

Usually pIC50 stands for −log10 of the IC50, conventionally taken in molar units.

The test system of test [1] is MV4-11 cells. The experiment in a line: GATA2 expression in MV4-11 AML cell line. Format: cell-based. Particulars: 1 uM single agent, 48 h and 72 h. Here is the method: FIG. 24. […] (A-B) MV4-11 cells were plated at 2×10^5 cells/ml at indicated doses for 48 h and 72 h. RNA was prepared and analyzed for GATA2 and GAPDH as internal control.
Test [2] concerns HDACs 4-9. In words: in vitro HDAC inhibition assay, HDACs 4-9. Type of test: biochemical. Particulars: concentrations as high as 20 μM; FIG. 20.
Test [3] concerns HbG mRNA. The experiment in a line: % HbG mRNA induction in 2-phase culture systems CS1 and CS2. Format: cell-based, human. An excerpt:
Then, the cells were differentiated by exposure to either vehicle (control) or Compound 001. RNA samples of HbG were taken at days 0, 3, 5, and 8. […] Staining cells with a FITC-conjugated anti-HbF antibody and flow cytometry was used to measure induction of fetal hemoglobin.

Test [4] relates to human bone marrow-derived CD34+ cells. In words: viability of expanded CD34+ cells. Type of test: cell-based. Particulars: Homo sapiens, 48 h; 2 days of treatment; FIG. 19A. The source says: This possibility was first tested by measuring the viability of expanded human bone marrow-derived CD34+ cells, composed of primitive and more differentiated hematopoietic progenitors of multiple lineages, following 2 days of treatment with compound.

The subject of test [5] is Human CD34+ bone marrow cells. In words: erythroid maturation in CS1 by CD71/GlyA flow cytometry. Particulars: 1 μM, first 5 days. Type of test: cell-based. The source says:
To investigate the effects of HDAC inhibition on later stages of erythroid maturation, differentiation in CS1 was followed by flow cytometry using fluorescent antibodies against the transferrin receptor (CD71) and glycophorin A (GlyA). […] The majority of vehicle control cells continued to differentiate, becoming CD71^posGlyA^pos by day 8. […] CD71^posGlyA^mid cells are equivalent to proerythroblasts (ProE), while CD71^posGlyA^pos cells include the more differentiated basophilic and polychromatic erythroblasts.
In general terms: A flow cytometer gives signals particle by particle.

The target in test [6] is HDAC1 (Homo sapiens, UniProt Q13547). In words: in vitro biochemical HDAC inhibition assay. Particulars: read-out: IC50 HDAC1.
For test [7], the target named is HDAC2 (Homo sapiens, UniProt Q92769). The experiment in a line: in vitro biochemical HDAC inhibition assay. Particulars: read-out: IC50 HDAC2.
Test [8] deals with HDAC3 (Homo sapiens, UniProt O15379). The experiment in a line: in vitro biochemical HDAC inhibition assay. Particulars: read-out: IC50 HDAC3.
Test [9] has as its target HDAC6 (Homo sapiens, UniProt Q9UBN7). In words: in vitro biochemical HDAC inhibition assay.
Test [10] deals with Gata2 mRNA. The experiment in a line: induction of Gata2 mRNA in erythroid progenitors by HDAC1,2 inhibitors. Particulars: erythroid progenitors differentiated 3 days with compound; FIG. 2A-C. Type of test: cell-based, human. The source says:
Human bone marrow derived CD34+ cells were expanded for 7 days as described by Sankaran et al., Science, vol. 322(5909), pp. 1839-42 (2008). Cells were then differentiated, in the presence of the indicated compound (i.e., Compounds 001, Compound Y, Compound 2005, Compound 2004, Compound 2003), for 3 days in media supporting erythropoiesis (Hu et al., “Isolation and functional characterization of human erythroblasts at distinct stages: implications for understanding of normal and disordered erythropoiesis in vivo”, Blood, vol. 121(16), pp. 3246-53 ([…])). FIG. 2A, FIG. 2B, and FIG. 2C each represents an experimental series performed on different days and with different donor cells.

HDAC3, sequence (O15379 whole entry): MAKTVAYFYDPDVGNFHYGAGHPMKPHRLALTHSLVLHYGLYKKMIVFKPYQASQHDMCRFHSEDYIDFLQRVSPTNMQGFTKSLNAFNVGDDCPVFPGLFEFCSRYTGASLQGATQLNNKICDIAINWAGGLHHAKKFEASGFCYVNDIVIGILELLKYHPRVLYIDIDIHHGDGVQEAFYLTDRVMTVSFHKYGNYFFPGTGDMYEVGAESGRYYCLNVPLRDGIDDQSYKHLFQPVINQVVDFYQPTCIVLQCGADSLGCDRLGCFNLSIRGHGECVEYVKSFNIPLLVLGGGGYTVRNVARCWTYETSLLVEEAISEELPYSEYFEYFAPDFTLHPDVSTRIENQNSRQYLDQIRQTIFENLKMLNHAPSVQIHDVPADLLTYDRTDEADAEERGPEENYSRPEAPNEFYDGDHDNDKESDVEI
HDAC3, sequence (Q9Y618 395-489 partner limits assumed): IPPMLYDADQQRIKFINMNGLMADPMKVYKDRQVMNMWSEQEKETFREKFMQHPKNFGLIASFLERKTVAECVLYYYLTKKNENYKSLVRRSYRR
HDAC2, sequence (Q92769 whole entry): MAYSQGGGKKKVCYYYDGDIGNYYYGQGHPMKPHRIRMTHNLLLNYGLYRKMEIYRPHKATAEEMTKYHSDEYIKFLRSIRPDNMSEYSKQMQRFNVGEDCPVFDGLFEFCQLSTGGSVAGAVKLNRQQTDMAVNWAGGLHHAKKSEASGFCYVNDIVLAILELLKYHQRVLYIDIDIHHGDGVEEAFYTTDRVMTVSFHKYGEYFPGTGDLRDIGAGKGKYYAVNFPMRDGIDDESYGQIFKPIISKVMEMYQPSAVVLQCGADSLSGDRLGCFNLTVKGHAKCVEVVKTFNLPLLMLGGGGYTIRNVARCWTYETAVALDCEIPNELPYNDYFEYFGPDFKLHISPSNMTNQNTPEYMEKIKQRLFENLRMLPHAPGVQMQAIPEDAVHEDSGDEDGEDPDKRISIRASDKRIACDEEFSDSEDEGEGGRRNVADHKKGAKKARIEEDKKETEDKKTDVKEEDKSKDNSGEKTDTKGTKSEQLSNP
HDAC1, sequence (Q13547 whole entry): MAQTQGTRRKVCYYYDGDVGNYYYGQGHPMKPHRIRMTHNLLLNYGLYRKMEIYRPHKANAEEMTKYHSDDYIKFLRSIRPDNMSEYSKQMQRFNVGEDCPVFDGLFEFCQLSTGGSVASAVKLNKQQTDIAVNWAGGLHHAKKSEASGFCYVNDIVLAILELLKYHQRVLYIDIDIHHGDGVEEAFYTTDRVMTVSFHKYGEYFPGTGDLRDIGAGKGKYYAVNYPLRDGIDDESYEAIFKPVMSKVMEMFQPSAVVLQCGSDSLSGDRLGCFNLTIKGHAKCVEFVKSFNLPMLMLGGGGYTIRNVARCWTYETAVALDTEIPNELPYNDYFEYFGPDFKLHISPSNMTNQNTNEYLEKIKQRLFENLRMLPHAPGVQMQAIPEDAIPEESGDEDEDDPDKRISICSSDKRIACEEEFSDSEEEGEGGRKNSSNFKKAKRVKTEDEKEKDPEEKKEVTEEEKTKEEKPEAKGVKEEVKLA
HDAC6, sequence (Q9UBN7 whole entry): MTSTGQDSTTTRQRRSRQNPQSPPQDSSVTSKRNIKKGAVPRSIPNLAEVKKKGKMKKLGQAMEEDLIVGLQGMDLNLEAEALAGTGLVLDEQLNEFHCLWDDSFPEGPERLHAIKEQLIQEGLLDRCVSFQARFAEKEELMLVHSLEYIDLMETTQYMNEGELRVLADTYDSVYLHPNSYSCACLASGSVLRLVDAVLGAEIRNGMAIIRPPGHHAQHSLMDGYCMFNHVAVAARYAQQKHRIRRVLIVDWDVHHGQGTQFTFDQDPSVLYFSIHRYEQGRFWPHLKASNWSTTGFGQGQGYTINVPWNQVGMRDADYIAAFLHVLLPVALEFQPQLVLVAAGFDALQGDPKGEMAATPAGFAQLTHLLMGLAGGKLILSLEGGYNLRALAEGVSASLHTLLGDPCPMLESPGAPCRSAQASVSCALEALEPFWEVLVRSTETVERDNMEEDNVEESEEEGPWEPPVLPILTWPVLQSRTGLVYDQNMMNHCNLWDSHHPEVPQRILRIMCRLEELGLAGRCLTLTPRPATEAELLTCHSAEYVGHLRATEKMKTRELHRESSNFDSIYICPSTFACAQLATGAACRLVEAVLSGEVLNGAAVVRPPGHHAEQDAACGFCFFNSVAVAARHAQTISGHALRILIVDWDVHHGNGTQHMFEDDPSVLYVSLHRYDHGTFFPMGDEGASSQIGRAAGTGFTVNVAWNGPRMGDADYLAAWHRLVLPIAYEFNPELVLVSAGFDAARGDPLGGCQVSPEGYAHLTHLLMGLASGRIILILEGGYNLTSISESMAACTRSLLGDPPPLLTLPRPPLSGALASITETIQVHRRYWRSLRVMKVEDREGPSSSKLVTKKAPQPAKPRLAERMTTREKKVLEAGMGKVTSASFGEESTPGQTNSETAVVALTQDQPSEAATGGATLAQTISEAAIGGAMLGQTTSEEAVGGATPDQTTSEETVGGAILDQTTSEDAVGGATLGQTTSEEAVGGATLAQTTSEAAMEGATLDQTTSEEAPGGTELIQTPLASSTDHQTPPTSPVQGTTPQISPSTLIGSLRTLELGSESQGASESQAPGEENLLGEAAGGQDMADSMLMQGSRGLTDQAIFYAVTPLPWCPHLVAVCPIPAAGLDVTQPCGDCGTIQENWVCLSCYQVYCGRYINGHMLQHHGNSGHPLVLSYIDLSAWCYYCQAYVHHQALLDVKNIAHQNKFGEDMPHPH

In the case of `Nc1ccc(-c2cccs2)cc1NC(=O)c1ccc2c(c1)cc(C1CC1)n2CCN1CCOCC1` [Compound 005, N-(2-amino-5-(thiophen-2-yl)phenyl)-2-cyclopropyl-1-(2-morpholinoethyl)-1H-indole-5-carboxamide], the GATA2 level result in test [1] is on record as “induced GATA2 level”.
In the case of `Nc1ccccc1NC(=O)c1ccc(CNC(=O)OCc2cccnc2)cc1` [Entinostat, reference compound], in [2], the “inhibition of HDACs 4-9” value was “negligible inhibitory activity; also recorded: no inhibition”. Also, the “% HbG” value in test [3] (1 μM, increased from 10%) is 46%. The “induction in % HbG” value in [3] (differentiation phase, both culture systems, FIG. 10B, 21A-C) is “dose- and time-dependent induction”. For the same compound, the pIC50 in test [4] was 5.52. In test [5], the “erythroid differentiation (CD71/GlyA)” value was “differentiated normally”.
Turning to `O=C(NO)c1cnc(NC2(c3ccccc3)CCN(C(=O)Nc3ccc(Cl)c(Cl)c3)CC2)nc1` [Compound 1011], the pIC50 is 6.96 in test [6] (Table 3); 6.75 in [7] (Table 3); 5.66 in [8] (Table 3); 7.85 in test [9] (read-out: IC50 HDAC6, Table 3).
Take `CC(C)[C@@H](C(=O)N1CCC(C)(Nc2ncc(C(=O)NO)cn2)CC1)c1ccccc1` [Compound 1027]: the pIC50 was 6.89 in test [6] (Table 3), 6.99 in test [7] (Table 3), 6.37 in test [8] (Table 3) and 7.92 in test [9].
As to `CN1CCN(c2ccc(C(=O)Nc3cc(-c4ccccc4)ccc3N)cc2C2CC2)CC1` [Compound 2003], the pIC50 in test [6] (Table 4) is 7.07; in test [7] (Table 4), 7.10; in test [8] (Table 4) it was 6.31. Also, the “Gata2 mRNA” value in [10] was “induction of Gata2 mRNA”.
For `Nc1ccc(-c2cccs2)cc1NC(=O)c1ccc(N2CCNCC2)cc1C1CC1` [Compound 2004], in that order: 7.95, 8.05, 6.68 and “induction of Gata2 mRNA”.
Turning to `Nc1ncn([C@@H]2O[C@H](CO)[C@@H](O)[C@H]2O)c(=O)n1` [Azacitidine, azacitidine, reference compound], the GATA2 level result in test [1] is “induced GATA2 level”.
On to `Nc1ccc(-c2cccs2)cc1NC(=O)c1cnc(NC2CCN(C(=O)N3CCOCC3)CC2)nc1` [Compound 2007], for which the negative-log IC50 (pIC50) in test [6] (Table 4) was 7.83; in [7] (Table 4) it was 7.26; in test [8] (Table 4), 6.55. Also, the “Gata2 mRNA” value in test [10] is reported as “induction of Gata2 mRNA”.
On to `CC1(Nc2ncc(C(=O)Nc3cc(-c4cccs4)ccc3N)cn2)CCN(C(=O)N2CCNCC2)CC1` [Compound 2008], for which the pIC50 in [6] (Table 4) was 8.14; in [7] (Table 4), 7.59; in test [8] (Table 4), 6.71. Also, the “Gata2 mRNA” value in test [10] is “induction of Gata2 mRNA”.
